Reference: article PMC5761851, “Application of a phenotypic drug discovery strategy to identify biological and chemical starting points for inhibition of TSLP production in lung epithelial cells” (PLoS ONE, 2018)

Experiments:
Experiment in all cases: kinase selectivity panel
Type in all cases: biochemical
[1] = biological target: T1, BRK (Homo sapiens, UniProt Q13882); conditions: read-out: percentage of control activity (POC), BRK
T1 construct: purchased Eurofins Pharma Discovery Services (KinaseProfiler; Cerep BioPrint panel)
T1 sequence (Q13882 whole entry): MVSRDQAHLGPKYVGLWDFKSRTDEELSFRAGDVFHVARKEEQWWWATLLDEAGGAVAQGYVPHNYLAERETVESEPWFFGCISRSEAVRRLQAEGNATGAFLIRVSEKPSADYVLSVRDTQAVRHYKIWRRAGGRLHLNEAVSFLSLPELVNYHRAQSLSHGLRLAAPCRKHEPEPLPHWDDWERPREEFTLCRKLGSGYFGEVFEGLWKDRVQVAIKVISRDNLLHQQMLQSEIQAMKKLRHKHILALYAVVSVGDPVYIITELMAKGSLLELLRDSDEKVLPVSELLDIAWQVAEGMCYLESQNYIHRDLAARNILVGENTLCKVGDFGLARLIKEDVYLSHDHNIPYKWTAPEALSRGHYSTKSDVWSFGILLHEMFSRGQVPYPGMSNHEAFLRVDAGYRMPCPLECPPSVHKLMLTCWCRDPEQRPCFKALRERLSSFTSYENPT
Protocol: (§1) Kinase selectivity was evaluated at Eurofins Pharma Discovery Services using a selection of 125 representative kinases tested at a concentration of 10 μM in duplicate (S3 Table). IC50 values for selected activities were further characterized at 9 duplicate concentrations. DNA-PK activity was determined at the SelectScreen® Biochemical kinase Profiling Service of Thermo Fisher Scientific.

[2] = biological target: T2, CDK2/cyclinA (Homo sapiens, UniProt P24941); conditions: read-out: percentage of control activity (POC), CDK2/cyclinA
T2 construct: purchased Eurofins Pharma Discovery Services (KinaseProfiler; Cerep BioPrint panel)
Protocol: as §1

[3] = biological target: T3, CDK6/cyclinD3 (Homo sapiens, UniProt Q00534); conditions: read-out: percentage of control activity (POC), CDK6/cyclinD3
T3 construct: purchased Eurofins Pharma Discovery Services (KinaseProfiler; Cerep BioPrint panel)
T3 sequence (Q00534 whole entry): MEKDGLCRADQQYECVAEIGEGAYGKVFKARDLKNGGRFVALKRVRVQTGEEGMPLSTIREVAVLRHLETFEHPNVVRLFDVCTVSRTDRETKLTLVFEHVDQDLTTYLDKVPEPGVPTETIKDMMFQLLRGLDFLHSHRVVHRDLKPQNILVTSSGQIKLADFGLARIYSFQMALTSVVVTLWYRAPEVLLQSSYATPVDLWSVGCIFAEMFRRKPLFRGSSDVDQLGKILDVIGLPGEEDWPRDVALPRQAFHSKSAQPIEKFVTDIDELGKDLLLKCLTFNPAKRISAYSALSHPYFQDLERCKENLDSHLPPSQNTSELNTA
T3 sequence (P30281 whole entry partner): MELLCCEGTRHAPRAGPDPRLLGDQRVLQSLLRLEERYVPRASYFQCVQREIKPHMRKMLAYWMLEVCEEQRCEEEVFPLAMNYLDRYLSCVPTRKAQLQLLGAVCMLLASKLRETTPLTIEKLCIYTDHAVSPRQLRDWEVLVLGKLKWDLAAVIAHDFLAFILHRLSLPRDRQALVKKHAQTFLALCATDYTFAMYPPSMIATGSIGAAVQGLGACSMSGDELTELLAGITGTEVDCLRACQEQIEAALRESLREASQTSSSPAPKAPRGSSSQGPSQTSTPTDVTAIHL
Protocol: as §1

[4] = biological target: T4, CK1δ (Homo sapiens, UniProt P48730); conditions: read-out: percentage of control activity (POC), CK1δ
T4 construct: purchased Eurofins Pharma Discovery Services (KinaseProfiler; Cerep BioPrint panel)
Protocol: as §1

[5] = biological target: T5, CK2α2 (Homo sapiens, UniProt P19784); conditions: read-out: percentage of control activity (POC), CK2α2
T5 construct: purchased Eurofins Pharma Discovery Services (KinaseProfiler; Cerep BioPrint panel)
Protocol: as §1

[6] = biological target: T6, CSK (Homo sapiens, UniProt P41240); conditions: read-out: percentage of control activity (POC), CSK
T6 construct: purchased Eurofins Pharma Discovery Services (KinaseProfiler; Cerep BioPrint panel)
Protocol: as §1

[7] = biological target: T7, CaMKI (Homo sapiens, UniProt Q14012); conditions: read-out: percentage of control activity (POC), CaMKI
T7 construct: purchased Eurofins Pharma Discovery Services (KinaseProfiler; Cerep BioPrint panel)
Protocol: as §1

[8] = biological target: T8, Fer (Homo sapiens, UniProt P16591); conditions: read-out: percentage of control activity (POC), Fer
T8 construct: purchased Eurofins Pharma Discovery Services (KinaseProfiler; Cerep BioPrint panel)
Protocol: as §1

[9] = biological target: T9, Fms (Homo sapiens, UniProt P07333); conditions: for remaining activity at 10 µM: read-out: percentage of control activity (POC), Fms
T9 construct: purchased Eurofins Pharma Discovery Services (KinaseProfiler; Cerep BioPrint panel)
Protocol: as §1

[10] = biological target: T10, Hck (Homo sapiens, UniProt P08631); conditions: for remaining activity at 10 µM: read-out: percentage of control activity (POC), Hck
T10 construct: Eurofins Pharma Discovery Services (contract assay service)
T10 sequence (P08631 whole entry, species assumed): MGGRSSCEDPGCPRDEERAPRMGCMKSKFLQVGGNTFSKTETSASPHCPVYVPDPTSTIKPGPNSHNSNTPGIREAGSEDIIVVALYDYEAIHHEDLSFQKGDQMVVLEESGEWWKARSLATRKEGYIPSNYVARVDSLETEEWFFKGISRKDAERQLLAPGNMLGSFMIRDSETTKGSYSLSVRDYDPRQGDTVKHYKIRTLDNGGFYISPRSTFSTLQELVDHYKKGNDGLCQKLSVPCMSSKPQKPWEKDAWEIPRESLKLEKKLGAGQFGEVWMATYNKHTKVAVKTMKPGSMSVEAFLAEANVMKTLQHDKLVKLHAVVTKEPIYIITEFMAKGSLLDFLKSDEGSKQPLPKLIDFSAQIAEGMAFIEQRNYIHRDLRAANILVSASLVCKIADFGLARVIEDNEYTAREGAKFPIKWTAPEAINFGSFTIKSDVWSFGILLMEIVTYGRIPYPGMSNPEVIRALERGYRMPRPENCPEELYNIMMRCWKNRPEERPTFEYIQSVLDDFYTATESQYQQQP
Protocol: as §1

[11] = biological target: T11, JNK1α1 (Homo sapiens, UniProt P45983); conditions: read-out: percentage of control activity (POC), JNK1α1
T11 construct: purchased Eurofins Pharma Discovery Services (KinaseProfiler; Cerep BioPrint panel)
T11 sequence (P45983 1-384 isoform P45983-2): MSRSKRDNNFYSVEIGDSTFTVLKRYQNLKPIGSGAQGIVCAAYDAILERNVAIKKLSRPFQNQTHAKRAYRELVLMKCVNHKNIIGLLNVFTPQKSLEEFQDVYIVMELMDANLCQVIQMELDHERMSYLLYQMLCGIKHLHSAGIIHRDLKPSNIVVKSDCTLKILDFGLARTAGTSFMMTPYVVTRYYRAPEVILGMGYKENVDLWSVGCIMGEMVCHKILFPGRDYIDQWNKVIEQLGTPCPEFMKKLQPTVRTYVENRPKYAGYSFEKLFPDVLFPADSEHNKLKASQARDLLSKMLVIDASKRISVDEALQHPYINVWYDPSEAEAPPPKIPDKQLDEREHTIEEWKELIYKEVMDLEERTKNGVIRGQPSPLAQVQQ
Protocol: as §1

[12] = biological target: T12, MAPK2 (Homo sapiens, UniProt P28482); conditions: read-out: percentage of control activity (POC), MAPK2
T12 construct: purchased Eurofins Pharma Discovery Services (KinaseProfiler; Cerep BioPrint panel)
Protocol: as §1

[13] = biological target: T13, MEK1 (Homo sapiens, UniProt Q02750); conditions: read-out: percentage of control activity (POC), MEK1
T13 construct: purchased Eurofins Pharma Discovery Services (KinaseProfiler; Cerep BioPrint panel)
Protocol: as §1

[14] = biological target: T14, PI3K (p110a/p85a) (Homo sapiens, UniProt P42336); conditions: read-out: percentage of control activity (POC), PI3K (p110a/p85a)
T14 construct: purchased Eurofins Pharma Discovery Services (KinaseProfiler; Cerep BioPrint panel)
T14 sequence (P42336 whole entry): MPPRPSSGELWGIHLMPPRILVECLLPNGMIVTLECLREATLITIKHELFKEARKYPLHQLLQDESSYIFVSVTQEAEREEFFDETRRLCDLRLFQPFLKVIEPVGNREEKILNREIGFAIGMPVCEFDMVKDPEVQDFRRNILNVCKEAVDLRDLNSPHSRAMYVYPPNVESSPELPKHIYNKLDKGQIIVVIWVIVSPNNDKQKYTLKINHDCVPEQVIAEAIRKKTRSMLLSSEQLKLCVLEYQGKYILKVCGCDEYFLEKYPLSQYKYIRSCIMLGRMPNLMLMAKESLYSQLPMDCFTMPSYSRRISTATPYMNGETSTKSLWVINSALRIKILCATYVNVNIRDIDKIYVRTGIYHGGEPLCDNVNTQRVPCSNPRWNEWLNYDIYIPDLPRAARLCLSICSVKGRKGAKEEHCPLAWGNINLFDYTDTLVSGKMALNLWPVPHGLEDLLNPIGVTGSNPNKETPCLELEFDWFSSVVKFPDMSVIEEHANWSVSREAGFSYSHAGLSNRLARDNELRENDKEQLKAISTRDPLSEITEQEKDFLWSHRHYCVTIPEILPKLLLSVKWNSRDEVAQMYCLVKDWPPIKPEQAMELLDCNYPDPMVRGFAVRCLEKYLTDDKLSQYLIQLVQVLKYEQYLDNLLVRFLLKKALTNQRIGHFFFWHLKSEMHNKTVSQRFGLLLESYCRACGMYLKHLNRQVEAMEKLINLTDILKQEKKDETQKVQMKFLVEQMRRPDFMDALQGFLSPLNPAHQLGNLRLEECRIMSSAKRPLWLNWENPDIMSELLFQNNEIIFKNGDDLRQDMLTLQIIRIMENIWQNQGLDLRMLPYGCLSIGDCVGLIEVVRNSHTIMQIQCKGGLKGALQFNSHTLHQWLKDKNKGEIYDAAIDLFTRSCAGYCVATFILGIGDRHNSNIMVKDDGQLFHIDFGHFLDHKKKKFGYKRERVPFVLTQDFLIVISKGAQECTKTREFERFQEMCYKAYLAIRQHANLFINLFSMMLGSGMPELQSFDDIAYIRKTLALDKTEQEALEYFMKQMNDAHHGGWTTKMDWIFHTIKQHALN
T14 sequence (P27986 whole entry partner): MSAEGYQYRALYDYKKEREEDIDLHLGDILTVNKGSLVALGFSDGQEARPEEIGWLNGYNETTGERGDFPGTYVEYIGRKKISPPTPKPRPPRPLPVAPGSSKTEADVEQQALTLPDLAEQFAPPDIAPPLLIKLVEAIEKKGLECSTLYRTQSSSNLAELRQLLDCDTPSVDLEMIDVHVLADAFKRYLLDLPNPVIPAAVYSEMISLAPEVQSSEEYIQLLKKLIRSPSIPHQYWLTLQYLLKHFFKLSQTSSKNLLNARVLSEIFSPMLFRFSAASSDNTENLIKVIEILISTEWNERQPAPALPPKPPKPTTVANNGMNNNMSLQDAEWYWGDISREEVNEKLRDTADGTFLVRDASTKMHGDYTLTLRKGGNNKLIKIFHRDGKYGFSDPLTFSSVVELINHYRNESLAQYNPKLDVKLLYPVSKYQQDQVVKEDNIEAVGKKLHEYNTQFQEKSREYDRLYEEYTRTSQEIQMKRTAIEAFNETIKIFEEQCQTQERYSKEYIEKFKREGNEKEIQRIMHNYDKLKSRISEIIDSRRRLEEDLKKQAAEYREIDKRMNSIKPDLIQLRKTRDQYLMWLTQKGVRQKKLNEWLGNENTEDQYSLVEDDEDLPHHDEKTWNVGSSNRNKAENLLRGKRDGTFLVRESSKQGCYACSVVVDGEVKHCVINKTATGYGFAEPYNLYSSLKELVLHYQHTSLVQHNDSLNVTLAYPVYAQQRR
Protocol: as §1

[15] = biological target: T15, PKCγ (Homo sapiens, UniProt P05129); conditions: read-out: percentage of control activity (POC), PKCγ
T15 construct: purchased Eurofins Pharma Discovery Services (KinaseProfiler; Cerep BioPrint panel)
Protocol: as §1

[16] = biological target: T16, PKCδ (Homo sapiens, UniProt Q05655); conditions: read-out: percentage of control activity (POC), PKCδ
T16 construct: purchased Eurofins Pharma Discovery Services (KinaseProfiler; Cerep BioPrint panel)
T16 sequence (Q05655 whole entry): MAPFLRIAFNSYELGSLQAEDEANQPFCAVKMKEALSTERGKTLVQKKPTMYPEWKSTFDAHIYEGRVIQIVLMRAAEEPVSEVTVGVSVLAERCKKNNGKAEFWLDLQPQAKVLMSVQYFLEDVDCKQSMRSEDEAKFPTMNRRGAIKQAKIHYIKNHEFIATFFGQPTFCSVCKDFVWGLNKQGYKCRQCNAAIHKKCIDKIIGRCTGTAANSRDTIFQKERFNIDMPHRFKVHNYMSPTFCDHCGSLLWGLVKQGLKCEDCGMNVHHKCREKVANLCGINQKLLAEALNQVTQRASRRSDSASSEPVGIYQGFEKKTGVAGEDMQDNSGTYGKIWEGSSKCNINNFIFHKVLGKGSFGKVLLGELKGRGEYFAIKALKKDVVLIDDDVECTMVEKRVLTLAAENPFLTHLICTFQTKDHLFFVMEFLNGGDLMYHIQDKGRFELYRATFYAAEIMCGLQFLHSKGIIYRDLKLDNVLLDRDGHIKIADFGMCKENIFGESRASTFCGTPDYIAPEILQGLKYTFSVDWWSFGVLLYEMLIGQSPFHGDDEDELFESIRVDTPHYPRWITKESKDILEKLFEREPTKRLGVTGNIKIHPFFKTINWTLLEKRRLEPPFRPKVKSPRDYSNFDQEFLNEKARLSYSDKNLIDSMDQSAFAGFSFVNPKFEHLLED
Protocol: as §1

[17] = biological target: T17, PKCε (Homo sapiens, UniProt Q02156); conditions: read-out: percentage of control activity (POC), PKCε
T17 construct: purchased Eurofins Pharma Discovery Services (KinaseProfiler; Cerep BioPrint panel)
T17 sequence (Q02156 1-737): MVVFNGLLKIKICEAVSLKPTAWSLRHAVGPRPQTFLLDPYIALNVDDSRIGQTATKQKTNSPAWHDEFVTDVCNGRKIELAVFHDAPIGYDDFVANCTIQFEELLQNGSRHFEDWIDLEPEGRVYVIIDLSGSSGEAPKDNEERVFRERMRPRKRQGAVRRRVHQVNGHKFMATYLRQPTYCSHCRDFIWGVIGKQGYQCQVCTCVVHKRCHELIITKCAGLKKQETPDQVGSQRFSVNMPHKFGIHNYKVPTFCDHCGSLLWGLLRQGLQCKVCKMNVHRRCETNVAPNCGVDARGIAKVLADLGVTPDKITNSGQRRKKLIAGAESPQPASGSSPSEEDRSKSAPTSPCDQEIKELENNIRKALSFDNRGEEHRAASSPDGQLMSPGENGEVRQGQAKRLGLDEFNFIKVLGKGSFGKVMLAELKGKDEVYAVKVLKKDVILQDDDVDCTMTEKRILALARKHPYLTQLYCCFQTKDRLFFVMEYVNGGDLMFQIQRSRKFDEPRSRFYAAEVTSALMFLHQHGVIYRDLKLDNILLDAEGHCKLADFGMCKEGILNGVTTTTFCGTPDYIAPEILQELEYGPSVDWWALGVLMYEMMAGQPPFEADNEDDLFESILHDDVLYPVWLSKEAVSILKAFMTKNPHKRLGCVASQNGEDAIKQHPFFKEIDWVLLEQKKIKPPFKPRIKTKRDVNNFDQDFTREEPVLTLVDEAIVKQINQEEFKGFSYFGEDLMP
Protocol: as §1

[18] = biological target: T18, Plk3 (Homo sapiens, UniProt Q9H4B4); conditions: read-out: percentage of control activity (POC), Plk3
T18 construct: purchased Eurofins Pharma Discovery Services (KinaseProfiler; Cerep BioPrint panel)
Protocol: as §1

[19] = biological target: T19, ROCK-I (Homo sapiens, UniProt Q13464); conditions: read-out: percentage of control activity (POC), ROCK-I
T19 construct: purchased Eurofins Pharma Discovery Services (KinaseProfiler; Cerep BioPrint panel)
Protocol: as §1

[20] = biological target: T20, ROCK-II (Homo sapiens, UniProt O75116); conditions: read-out: percentage of control activity (POC), ROCK-II
T20 construct: purchased Eurofins Pharma Discovery Services (KinaseProfiler; Cerep BioPrint panel)
Protocol: as §1

[21] = biological target: T21, Rsk3 (Homo sapiens, UniProt Q15349); conditions: read-out: percentage of control activity (POC), Rsk3
T21 construct: purchased Eurofins Pharma Discovery Services (KinaseProfiler; Cerep BioPrint panel)
Protocol: as §1

[22] = biological target: T22, cSRC (Homo sapiens, UniProt P12931); conditions: read-out: percentage of control activity (POC), cSRC
T22 construct: purchased Eurofins Pharma Discovery Services (KinaseProfiler; Cerep BioPrint panel)
T22 sequence (P12931 whole entry): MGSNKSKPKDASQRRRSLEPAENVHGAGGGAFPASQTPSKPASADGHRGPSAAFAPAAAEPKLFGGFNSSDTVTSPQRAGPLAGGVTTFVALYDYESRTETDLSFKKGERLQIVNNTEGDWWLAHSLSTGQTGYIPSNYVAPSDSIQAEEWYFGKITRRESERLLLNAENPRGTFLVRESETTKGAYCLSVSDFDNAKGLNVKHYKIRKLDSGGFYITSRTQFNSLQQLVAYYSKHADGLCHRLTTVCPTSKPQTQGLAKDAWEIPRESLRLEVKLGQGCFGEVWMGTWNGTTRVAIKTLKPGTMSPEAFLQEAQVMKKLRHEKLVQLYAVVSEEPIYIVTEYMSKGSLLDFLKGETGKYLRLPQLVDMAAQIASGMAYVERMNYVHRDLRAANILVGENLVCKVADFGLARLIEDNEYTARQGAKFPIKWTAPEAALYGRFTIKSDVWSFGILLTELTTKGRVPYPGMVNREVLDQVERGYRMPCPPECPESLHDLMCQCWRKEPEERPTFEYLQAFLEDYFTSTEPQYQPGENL
Protocol: as §1

[23] = biological target: T23, eEF-2K (Homo sapiens, UniProt O00418); conditions: read-out: percentage of control activity (POC), eEF-2K
T23 construct: purchased Eurofins Pharma Discovery Services (KinaseProfiler; Cerep BioPrint panel)
Protocol: as §1

| Structure (SMILES) | remaining activity at 10 µM [1] [%] | remaining activity at 10 µM [2] [%] | remaining activity at 10 µM [3] [%] | remaining activity at 10 µM [4] [%] | remaining activity at 10 µM [5] [%] | remaining activity at 10 µM [6] [%] | remaining activity at 10 µM [7] [%] | remaining activity at 10 µM [8] [%] | remaining activity at 10 µM [9] [%] | remaining activity at 10 µM ([10]; 10 μM) [%] | remaining activity at 10 µM [11] [%] | remaining activity at 10 µM [12] [%] | remaining activity at 10 µM [13] [%] | remaining activity at 10 µM [14] [%] | remaining activity at 10 µM [15] [%] | remaining activity at 10 µM [16] [%] | remaining activity at 10 µM [17] [%] | remaining activity at 10 µM [18] [%] | remaining activity at 10 µM [19] [%] | remaining activity at 10 µM [20] [%] | also measured |
| --- | --- | --- | --- | --- | --- | --- | --- | --- | --- | --- | --- | --- | --- | --- | --- | --- | --- | --- | --- | --- | --- |
| CC(C)(C)N1CCC(c2cc(-c3ccc(F)cc3Cl)c3cc[n+]([O-])c(-c4c(Cl)cccc4Cl)c3n2)CC1 [compound 2] | 98 | 105 | 102 | 110 | 105 | 95 | 94 | 109 | 100 | 84 | 97 | 105 | 112 | 97 | 117 | 109 | 94 | 111 | 97 | 100 | remaining activity at 10 µM [21]: 99%; remaining activity at 10 µM [22]: 107%; remaining activity at 10 µM [23]: 115% |
| Cn1cc(-c2cccc(-c3nc(C(=O)NC4C5CC6CC4CC(O)(C6)C5)c(N)nc3N)c2)cn1 (centres unmarked) [compound 4] | 71 | 91 | 93 | 50 | 105 | 94 | 87 | 99 | 63 | 47 | 92 | 97 | 97 | 60 | 96 | 97 | 87 | 95 | 91 | 85 | inhibition at 10 µM ([10]; 10 μM): 53%; IC50 ([10]; biochemical dose response, duplicate, read-out: Inhibition of indicated activity (IC50, μM): Hck): 3.58 µM; remaining activity at 10 µM [21]: 75%; remaining activity at 10 µM [22]: 69%; remaining activity at 10 µM [23]: 115% |
| CS(=O)(=O)N1CCN(c2ccc(Nc3ncc(C(N)=O)c(NC4CC4)n3)cc2)CC1 [compound 5] | 39 | 78 | 23 | 23 | 43 | 74 | 28 | 14 | -2 | 7 | 3 | 49 | 13 | 96 | 4 | 8 | 54 | 63 | 43 | 3 | remaining activity at 10 µM [21]: 0%; remaining activity at 10 µM [22]: 16%; remaining activity at 10 µM [23]: 97% |

More lines, main results first:

| remaining activity at 10 µM [1] [%] | remaining activity at 10 µM [2] [%] | remaining activity at 10 µM [3] [%] | remaining activity at 10 µM [4] [%] | remaining activity at 10 µM [5] [%] | remaining activity at 10 µM [6] [%] | remaining activity at 10 µM [7] [%] | remaining activity at 10 µM [8] [%] | remaining activity at 10 µM [9] [%] | remaining activity at 10 µM ([10]; 10 μM) [%] | remaining activity at 10 µM [11] [%] | remaining activity at 10 µM [12] [%] | remaining activity at 10 µM [13] [%] | remaining activity at 10 µM [14] [%] | remaining activity at 10 µM [15] [%] | remaining activity at 10 µM [16] [%] | remaining activity at 10 µM [17] [%] | remaining activity at 10 µM [18] [%] | remaining activity at 10 µM [19] [%] | remaining activity at 10 µM [20] [%] | Structure (SMILES) | also measured |
| --- | --- | --- | --- | --- | --- | --- | --- | --- | --- | --- | --- | --- | --- | --- | --- | --- | --- | --- | --- | --- | --- |
| 103 | 101 | 97 | 100 | 108 | 107 | 95 | 102 | 47 | 87 | 96 | 97 | 94 | 94 | 104 | 104 | 102 | 101 | 98 | 96 | Cc1ccc(C(=O)NCC2CC2)cc1-c1ccc2c(c1)NC(=O)C21CCCC1 [compound 3] | inhibition at 10 µM [9]: 53%; remaining activity at 10 µM [21]: 102%; remaining activity at 10 µM [22]: 103%; remaining activity at 10 µM [23]: 111% |
| 98 | 105 | 100 | 111 | 114 | 88 | 108 | 105 | 26 | 84 | 96 | 99 | 107 | 95 | 105 | 107 | 100 | 104 | 108 | 93 | COc1c(NC(=O)c2ccc(C)c(-c3nnc4c(NCC(C)(C)C)nccn34)c2)cc(C(C)(C)C)cc1NS(C)(=O)=O [compound 7, reference compound] | inhibition at 10 µM [9]: 74%; remaining activity at 10 µM [21]: 110%; remaining activity at 10 µM [22]: 103%; remaining activity at 10 µM [23]: 128% |
